Source: US11458077B2, “Two-phase cosmetic composition comprising a 4-(3-alkoxy-4-hydroxyphenyl)alkyl ketone” (L'OREAL, priority 2017, dated 2022)

Assay: Solubility of the ketone compound
Type: physicochemical

## CCOc1cc(CCC(C)=O)ccc1O [ketone compound, 4-(3-Ethoxy-4-hydroxyphenyl)butan-2-one]
glycerol
  solubility in glycerol: very low solubility
water
  solubility in water: very low solubility
